# What was measured:
# Test in all cases: in vitro susceptibility, MIC by mini broth dilution
# Format in all cases: cell-based
# [1] = test system: Staphylococcus aureus CVCC26003; details: strain CVCC26003
# Description: (§1) in vitro tests of susceptibility of the compounds according to the present disclosure against bacterial strains commonly used in laboratories. In accordance with the Performance Standards for Antimicrobial Disk Susceptibility Tests: Approved Standard published by the US National Committee for Clinical Laboratory Standards, the antibacterial activities of compounds prepared according to examples 5 to 187 were tested. The MICs (minimum inhibitory concentration) of the medicaments prepared according to the examples on the following bacterial strains were measured through mini broth dilution technique. Staphylococcus aureus CVCC26003, Streptococcus equines CVCC556. Actinobacillus pleuropneumoniae CVCC262, Haemophilus parasuis, and Pasteurella multocida CVCC399, which were purchased from the Control Institute of Veterinary Bioproducts and Pharmaceuticals, China. 4.1.1 Culture Medium for Staphylococcus aureus CVCC26003 Liquid culture medium: CAMHB. […] Solid culture medium: NINA prepared according to the specification of the final product. The strains were taken out of a refrigerator at −20° C. to be revived, and were spreaded by streaking on the solid culture medium with an inoculating loop. The inoculated culture medium was cultured at 35° C. in a constant temperature incubator for 20 h. […] were selected from a well-grown culture plate and streaked on the solid culture medium. The inoculated culture medium was cultured at 35° C. in the constant temperature incubator for 20 h. […] A 96-well plate was used, and 100 μl of DMSO was added into each of wells 2 to 11, and 200 μl of ready-prepared medicament solution was added into the 1st well, 100 μl of the medicament solution was extracted from the 1st well and added into the 2nd well. Double dilution was performed until the 11th well, thereby forming 11 gradients. In this case, compound of parent plate was prepared. 3 μl of double diluted medicament solution was extracted with a 12-channel pipettor and added into wells 1-11 of a new disposable 96-well culture plate. The 12th well thereof is a control well. For each medicament, there are two adjacent rows which are parallel. The transferred compound plate was reserved for later use. […] The dilution ratio was recorded, and the bacterial liquid for the tests was diluted according to the recorded dilution ratio. Subsequently, the bacterial suspension and the liquid culture medium were diluted in the proportion of 1:200. The diluted solution was reserved for later use.
# [2] = test system: Pasteurella multocida CVCC399; details: strain CVCC399
# Description: as §1, with “China. 4.1.2” for “China. 4.1.1”, “Culture Media” for “Culture Medium”, “for the Rest Four Bacterial Strains.” for “for Staphylococcus aureus CVCC26003”, “medium:” for “medium: CAMHB.”, “medium: […]” for “medium: NINA prepared according to the specification of the final product.”
# [3] = test system: Actinobacillus pleuropneumoniae CVCC262; details: strain CVCC262
# Description: as §1, with “China. 4.1.2” for “China. 4.1.1”, “Culture Media” for “Culture Medium”, “for the Rest Four Bacterial Strains.” for “for Staphylococcus aureus CVCC26003”, “medium:” for “medium: CAMHB.”, “medium: […]” for “medium: NINA prepared according to the specification of the final product.”
# [4] = test system: Haemophilus parasuis
# Description: as §1, with “China. 4.1.2” for “China. 4.1.1”, “Culture Media” for “Culture Medium”, “for the Rest Four Bacterial Strains.” for “for Staphylococcus aureus CVCC26003”, “medium:” for “medium: CAMHB.”, “medium: […]” for “medium: NINA prepared according to the specification of the final product.”
# [5] = test system: Streptococcus equines CVCC556; details: strain CVCC556
# Description: as §1, with “China. 4.1.2” for “China. 4.1.1”, “Culture Media” for “Culture Medium”, “for the Rest Four Bacterial Strains.” for “for Staphylococcus aureus CVCC26003”, “medium:” for “medium: CAMHB.”, “medium: […]” for “medium: NINA prepared according to the specification of the final product.”
SMILES,"MIC values, Staphylococcus aureus CVCC26003 [1]","MIC values, Pasteurella multocida CVCC399 [2] [ug/mi]","MIC values, Actinobacillus pleuropneumoniae CVCC262 [3] [ug/mi]","MIC values, Haemophilus parasuis [4]","MIC values, Streptococcus equines CVCC556 [5]"
"CC[C@H]1OC(=O)[C@H](C)[C@@H](O[C@H]2C[C@@](C)(OC)[C@](O)(CNCc3ccc(OC)cc3)[C@H](C)O2)[C@H](C)[C@@H](O[C@@H]2O[C@H](C)C[C@H](N(C)C)[C@H]2O)[C@](C)(O)C[C@@H](C)NC[C@H](C)[C@@H](O)[C@]1(C)O [syzx-18, (2R,3S,4R,5S,8R,10R,11R,12S,13S,14R)-13-[(2,6-dideoxy-3-C-methyl-3-O-methyl-4-C-[(4-methoxybenzylamino)methyl]-α-L-ribopyranosyl)oxy]-2-ethyl-3,4,10-trihydroxy-3,5,8,10,12,14-hexamethyl-11-[[3,4,6-trideoxy-3-(dimethylamino)-β-D-xylo-hexopyranosy]oxy]-1-oxa-7-azacyclopentadecan-15-one]",0.5 ug/mi,2,16,0.5 ug/mi,
CCCN1C[C@H](C)[C@@H](O)[C@](C)(O)[C@@H](CC)OC(=O)[C@H](C)[C@@H](O[C@H]2C[C@@](C)(OC)[C@](O)(CNCc3cnc(C)cn3)[C@H](C)O2)[C@H](C)[C@@H](O[C@@H]2O[C@H](C)C[C@H](N(C)C)[C@H]2O)[C@](C)(O)C[C@H]1C [syzx-165],0.25 ug/mi,1,0.25,0.25 ug/mi,0.25 ug/mi
"CCC(NC[C@]1(O)[C@H](C)O[C@@H](O[C@H]2[C@H](C)[C@@H](O[C@@H]3O[C@H](C)C[C@H](N(C)C)[C@H]3O)[C@](C)(O)C[C@@H](C)NC[C@H](C)[C@@H](O)[C@](C)(O)[C@@H](CC)OC(=O)[C@@H]2C)C[C@@]1(C)OC)C(=O)O (stereo partly drawn) [syzx-41, (2R,3S,4R,5S,8R,10R,11R,12S,13S,14R)-13-[(2,6-dideoxy-3-C-methyl-3-O-methyl-4-C-[[butyrate-2-amino]-methyl]-α-L-ribopyranosyl)oxy]-2-ethyl-3,4,10-trihydroxy-3,5,8,10,12,14-hexamethyl-11-[[3,4,6-trideoxy-3-(dimethylamino)-β-D-xylo-hexopyranosy]oxy]-1-oxa-7-azacyclopentadecan-15-one]",2 ug/mi,4,1,1 ug/mi,0.5 ug/mi
CCCN1C[C@H](C)[C@@H](O)[C@](C)(O)[C@@H](CC)OC(=O)[C@H](C)[C@@H](O[C@H]2C[C@@](C)(OC)[C@](O)(CNC(C)CCc3ccccc3)[C@H](C)O2)[C@H](C)[C@@H](O[C@@H]2O[C@H](C)C[C@H](N(C)C)[C@H]2O)[C@](C)(O)C[C@H]1C (stereo partly drawn) [syzx-134],0.25 ug/mi,0.5,0.25,0.25 ug/mi,0.25 ug/mi
"CC[C@H]1OC(=O)[C@H](C)[C@@H](O[C@H]2C[C@@](C)(OC)[C@](O)(CNc3ccccc3F)[C@H](C)O2)[C@H](C)[C@@H](O[C@@H]2O[C@H](C)C[C@H](N(C)C)[C@H]2O)[C@](C)(O)C[C@@H](C)NC[C@H](C)[C@@H](O)[C@]1(C)O [syzx-68, (2R,3S,4R,5S,8R,10R,11R,12S,13S,14R)-13-[(2,6-dideoxy-3-C-methyl-3-O-methyl-4-C-[(2-fluoro-phenyl-amino)-methyl]-α-L-ribopyranosyl)oxy]-2-ethyl-3,4,10-trihydroxy-3,5,8,10,12,14-hexamethyl-11-[[3,4,6-trideoxy-3-(dimethylamino)-β-D-xylo-hexopyranosy]oxy]-1-oxa-7-azacyclopentadecan-15-one]",≦0.25 ug/mi,8,8,≦0.25 ug/mi,≦0.25 ug/mi
CCCN1C[C@H](C)[C@@H](O)[C@](C)(O)[C@@H](CC)OC(=O)[C@H](C)[C@@H](O[C@H]2C[C@@](C)(OC)[C@](O)(CNc3ccc(Cl)nn3)[C@H](C)O2)[C@H](C)[C@@H](O[C@@H]2O[C@H](C)C[C@H](N(C)C)[C@H]2O)[C@](C)(O)C[C@H]1C [syzx-132],1 ug/mi,2,0.5,0.5 ug/mi,0.25 ug/mi
CCCN1C[C@H](C)[C@@H](O)[C@](C)(O)[C@@H](CC)OC(=O)[C@H](C)[C@@H](O[C@H]2C[C@@](C)(OC)[C@](O)(CNC(=O)c3ccccc3)[C@H](C)O2)[C@H](C)[C@@H](O[C@@H]2O[C@H](C)C[C@H](N(C)C)[C@H]2O)[C@](C)(O)C[C@H]1C [syzx-219],2 ug/mi,8,4,4 ug/mi,0.5 ug/mi
"CC[C@H]1OC(=O)[C@H](C)[C@@H](O[C@H]2C[C@@](C)(OC)[C@](O)(CNc3ccc(Cl)nn3)[C@H](C)O2)[C@H](C)[C@@H](O[C@@H]2O[C@H](C)C[C@H](N(C)C)[C@H]2O)[C@](C)(O)C[C@@H](C)NC[C@H](C)[C@@H](O)[C@]1(C)O [syzx-32, (2R,3S,4R,5S,8R,10R,11R,12S,13S,14R)-13-[(2,6-dideoxy-3-C-methyl-3-O-methyl-4-C-[(6-chloro-pyridazin-3-yl-amino)-methyl]-α-L-ribopyranosyl)oxy]-2-ethyl-3,4,10-trihydroxy-3,5,8,10,12,14-hexamethyl-11-[[3,4,6-trideoxy-3-(dimethylamino)-β-D-xylo-hexopyranosy]oxy]-1-oxa-7-azacyclopentadecan-15-one]",0.5 ug/mi,1,0.5,0.25 ug/mi,0.25 ug/mi

# From patent publication US9765105B2, “Macrolide compound” (Pulike Biological Engineering, Inc., priority 2013, dated 2017)
